Data taken from patent US20140377340A1, “HLA-DR BINDING PEPTIDES AND THEIR USES” (priority 2007, published 2014).

What was measured:
purified HLA DRB1*0101 = biological target: T1, purified HLA DRB1*0101 (Homo sapiens, UniProt P01903+P01911, A100R/D57E/F55L/F60I/F76Y/I96L/L162R/M171V/P40L/Q125E/R42F/V115G/Y59C); test: HLA-DR radioligand binding inhibition assay, DRB1*0101; conditions: IC50 nM purified HLA DRB1 *0101, purified HLA DRB1*0101
T1 construct: purified from EBV transformed homozygous cell lines or single MHC allele transfected 721.221, C1R, or fibroblast lines; made in house
Method in brief: (§1)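 Competition binding: 1-10 nM radiolabeled peptide + 1 μM–1 nM HLA-DR, protease inhibitor cocktail, 2 d, RT or 37° C., pH 4–7. LB3.1 capture 3 h in 0.05% NP40/PBS; scintillation counting.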

purified HLA DRB1*0404 = biological target: T2, purified HLA DRB1*0404 (Homo sapiens, UniProt P01903+P01911, A100R/A169T/F76Y/I96L/K127E/L162R/M171V/N62H/P40V/Q125Y/R42H/S133A/S149N/S66Y/V209L/W38E); test: HLA-DR radioligand binding inhibition assay, DRB1*0404; conditions: IC50 nM purified HLA DRB1 *0404, purified HLA DRB1*0404
T2 construct: purified from EBV transformed homozygous cell lines or single MHC allele transfected 721.221, C1R, or fibroblast lines; made in house
Protocol: (§2) Instead, wells of an opaque white 96-well Optiplate (Packard) are coated with 3 μg (100 μl@ 30 μg/ml) of HLA-specific antibody (Ab) that “capture” complexes of radiolabeled MHC and unlabeled peptide transferred from the molecular binding assay plate in 100 μl of 0.05% NP40/PBS. After a 3-hour incubation period, the supernatant is decanted and scintillation fluid (Microscint 20) added. Captured complexes are then measured on a microplate scintillation and luminescence counter (TopCount NXTTM; Packard).
(§3) HLA-DR purification. Fifteen distinct HLA-DR molecules were used in quantitative assays to measure the binding of peptides to solubilized HLA-DR molecules. […] Briefly, columns of inactivated Sepharose CL4B and Protein A Sepharose were used as pre-columns. HLA-DR molecules were captured by passage of lysates over LB3.1 monoclonal antibody (anti-HLA-DRA) columns. Antibody columns were washed with 10 mM Tris-HCL, pH8.0 with 1% (v/v) NP-40, followed by PBS containing 0.4% (w/v) n-octylglucoside.
(§4) Briefly, 1-10 nM of radiolabeled peptide was co-incubated for 2 days at either room temperature or 37° C. with 1 μM to 1 nM purified HLA-DR molecules in the presence of a cocktail of protease inhibitors. Assays were performed at various pH conditions, ranging from pH 4 to pH 7. […] After incubation, the percentage of HLA-DR-bound radioactivity is determined by capturing HLA-DR/peptide complexes on Optiplates (Packard Instruments, Meriden, Conn.) coated with the LB3.1 antibody and determining bound counts per minute using the TopCount microscintillation counter (Packard Instruments).

purified HLA DRB1*0401 = biological target: T3, purified HLA DRB1*0401 (Homo sapiens, UniProt P01903+P01911, A100K/A169T/F76Y/I96L/K127E/L162R/M171V/N62H/P40V/Q125Y/R42H/S133A/S149N/S66Y/V115G/V209L/W38E); test: HLA-DR radioligand binding inhibition assay, DRB1*0401; conditions: IC50 nM purified HLA DRB1 *0401, purified HLA DRB1*0401
T3 construct: purified from EBV transformed homozygous cell lines or single MHC allele transfected 721.221, C1R, or fibroblast lines; made in house
Method in brief: as §1

purified HLA DRB1*1302 = biological target: T4, purified HLA DRB1*1302 (Homo sapiens, UniProt P01903+P01911, A100E/A169T/K41T/L162R/M171V/P40S/Q125H/Q178H/Q39Y/Q99D/R42S/S66N/T262R/V115G/W38E/Y61H); test: HLA-DR radioligand binding inhibition assay, DRB1*1302
T4 construct: purified from EBV transformed homozygous cell lines or single MHC allele transfected 721.221, C1R, or fibroblast lines; made in house
Method in brief: as §1

purified HLA DRB1*1101 = biological target: T5, purified HLA DRB1*1101 (Homo sapiens, UniProt P01903+P01911, A100R/A169T/A87E/I96F/K41T/L162R/M171V/P40S/Q125H/Q178H/Q39Y/Q99D/R42S/S66Y/T262R/V115G/W38E); test: HLA-DR radioligand binding inhibition assay, DRB1*1101; conditions: IC50 nM purified HLA DRB1 *1101, purified HLA DRB1*1101
T5 construct: purified from EBV transformed homozygous cell lines or single MHC allele transfected 721.221, C1R, or fibroblast lines; made in house
T5 sequence (P01903 26-254, other chains not shown): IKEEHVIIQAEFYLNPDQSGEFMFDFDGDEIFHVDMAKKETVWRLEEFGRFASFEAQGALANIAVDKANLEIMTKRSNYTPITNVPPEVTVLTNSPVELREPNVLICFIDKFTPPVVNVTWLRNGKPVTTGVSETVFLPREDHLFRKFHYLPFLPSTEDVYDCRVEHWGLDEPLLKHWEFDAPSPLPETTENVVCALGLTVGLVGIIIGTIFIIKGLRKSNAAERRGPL
Protocol: as §2, §3, §4

purified HLA DRB1*0701 = biological target: T6, purified HLA DRB1*0701 (Homo sapiens, UniProt P01903+P01911, A100R/A102G/A103Q/D57E/D86V/E43K/F76Y/K127E/L162R/M171V/P40G/Q125H/Q99D/R33Q/R42Y/R54Q/S133A/S66F/T210M/V115G/Y107V/Y59L/Y89S); test: HLA-DR radioligand binding inhibition assay, DRB1*0701; conditions: IC50 nM purified HLA DRB1 *0701, purified HLA DRB1*0701
T6 construct: purified from EBV transformed homozygous cell lines or single MHC allele transfected 721.221, C1R, or fibroblast lines; made in house
Method in brief: as §1

purified HLA DRB1*0405 = biological target: T7, purified HLA DRB1*0405 (Homo sapiens, UniProt P01903+P01911, A100R/A169T/D86S/F76Y/I96L/K127E/L162R/M171V/N62H/P40V/Q125Y/R42H/S133A/S149N/S66Y/V115G/V209L/W38E); test: HLA-DR radioligand binding inhibition assay, DRB1*0405; conditions: IC50 nM purified HLA DRB1 *0405, purified HLA DRB1*0405
T7 construct: purified from EBV transformed homozygous cell lines or single MHC allele transfected 721.221, C1R, or fibroblast lines; made in house
Protocol: as §2, §3, §4

purified HLA DRB5*0101 = biological target: T8, purified HLA DRB5*0101 (Homo sapiens, UniProt P01903+Q30154); test: HLA-DR radioligand binding inhibition assay, DRB5*0101; conditions: IC50 nM purified HLA DRB5 *0101, purified HLA DRB5*0101
T8 construct: purified from EBV transformed homozygous cell lines or single MHC allele transfected 721.221, C1R, or fibroblast lines; made in house
Protocol: as §2, §3, §4

purified HLA DRB4*0101 = biological target: T9, purified HLA DRB4*0101 (Homo sapiens, UniProt P01903+P13762, G164S); test: HLA-DR radioligand binding inhibition assay, DRB4*0101; conditions: IC50 nM purified HLA DRB4 *0101, purified HLA DRB4*0101
T9 construct: purified from EBV transformed homozygous cell lines or single MHC allele transfected 721.221, C1R, or fibroblast lines; made in house
Protocol: as §2, §3, §4

Row | Structure (SMILES) | IC50 (purified HLA DRB1*0101) [nM] | IC50 (purified HLA DRB1*0404) [nM] | IC50 (purified HLA DRB1*0401) [nM] | IC50 (purified HLA DRB1*1302) [nM] | IC50 (purified HLA DRB1*1101) [nM] | IC50 (purified HLA DRB1*0701) [nM] | IC50 (purified HLA DRB1*0405) [nM] | IC50 (purified HLA DRB5*0101) [nM] | IC50 (purified HLA DRB4*0101) [nM]
1 | CC[C@H](C)[C@H](NC(=O)[C@H](CC(C)C)NC(=O)[C@@H](NC(=O)CNC(=O)CNC(=O)[C@H](CCCCN)NC(=O)[C@H](CC(C)C)NC(=O)[C@@H](NC(=O)[C@H](CCC(=O)O)NC(=O)[C@@H](N)[C@@H](C)O)[C@@H](C)CC)C(C)C)C(=O)N[C@@H](CCC(N)=O)C(=O)N[C@@H](CCCNC(=N)N)C(=O)N[C@@H](CC(N)=O)C(=O)N1CCC[C@H]1C(=O)N[C@@H](CCC(N)=O)C(=O)O [Peptide 9019.0039] | 71 | 12 | 40 | 343 | 642 | 2490 | 769 | 1880 | –
2 | CSCC[C@H](NC(=O)[C@@H](NC(=O)[C@H](Cc1ccc(O)cc1)NC(=O)[C@H](C)N)C(C)C)C(=O)N[C@@H](C)C(=O)NCC(=O)N[C@H](C(=O)NCC(=O)N[C@@H](CO)C(=O)N1CCC[C@H]1C(=O)N[C@@H](Cc1ccc(O)cc1)C(=O)N[C@H](C(=O)N[C@@H](CO)C(=O)N[C@@H](CCCNC(=N)N)C(=O)N[C@@H](CC(C)C)C(=O)O)C(C)C)C(C)C [Peptide 9019.0077] | 92 | – | – | 402 | 1800 | – | 596 | – | 5060
3 | CC[C@H](C)[C@H](NC(=O)[C@@H](NC(=O)[C@H](CO)NC(=O)[C@H](CC(=O)O)NC(=O)[C@@H](N)CO)C(C)C)C(=O)N[C@@H](CC(C)C)C(=O)N[C@@H](CC(N)=O)C(=O)N[C@H](C(=O)N[C@@H](CC(C)C)C(=O)N[C@@H](Cc1ccc(O)cc1)C(=O)NCC(=O)N1CCC[C@H]1C(=O)N[C@@H](CC(=O)O)C(=O)N[C@@H](C)C(=O)N1CCC[C@H]1C(=O)O)C(C)C [Peptide 9019.0119] | – | – | 255 | 83 | 9210 | 5240 | – | > 20000 | 612

Other lines, results leading:

Row | IC50 (purified HLA DRB1*0101) [nM] | IC50 (purified HLA DRB1*0404) [nM] | IC50 (purified HLA DRB1*0401) [nM] | IC50 (purified HLA DRB1*1302) [nM] | IC50 (purified HLA DRB1*1101) [nM] | IC50 (purified HLA DRB1*0701) [nM] | IC50 (purified HLA DRB1*0405) [nM] | IC50 (purified HLA DRB5*0101) [nM] | IC50 (purified HLA DRB4*0101) [nM] | Structure (SMILES)
4 | – | – | 2.5 | – | 3200 | – | – | – | 4300 | CC(C)C[C@H](NC(=O)[C@@H](N)Cc1ccc(O)cc1)C(=O)N[C@@H](Cc1c[nH]c2ccccc12)C(=O)N[C@@H](Cc1c[nH]c2ccccc12)C(=O)N[C@H](C(=O)N[C@@H](CC(N)=O)C(=O)NCC(=O)N[C@@H](CCC(N)=O)C(=O)N[C@@H](CO)C(=O)N[C@@H](CC(C)C)C(=O)N1CCC[C@H]1C(=O)N[C@H](C(=O)N[C@@H](CO)C(=O)N1CCC[C@H]1C(=O)N[C@@H](CCCNC(=N)N)C(=O)O)C(C)C)C(C)C [Peptide 9019.0134]
5 | 240 | – | – | – | > 20000 | – | > 20000 | 5820 | 2100 | CC(C)C[C@H](NC(=O)[C@@H](NC(=O)[C@@H](NC(=O)[C@@H]1CCCN1C(=O)[C@H](CC(=O)O)NC(=O)[C@H](CO)NC(=O)[C@H](CCCNC(=N)N)NC(=O)[C@H](CC(N)=O)NC(=O)[C@H](C)NC(=O)[C@H](CO)NC(=O)[C@@H](NC(=O)[C@H](CO)NC(=O)[C@H](CC(N)=O)NC(=O)[C@@H](N)CCC(N)=O)C(C)C)C(C)C)[C@@H](C)O)C(=O)N[C@@H](CC(=O)O)C(=O)O [Peptide 9019.0136]
